Results: US9012651B2, “TRPV3 modulators” (AbbVie Inc., priority 2011, dated 2015)

Biological target: human TRPV3 receptors (Homo sapiens (Human), UniProt Q8NET8)
Experiment: Calcium flux assay (FLIPR TETRA), inhibition of the 2-APB response
Assay type: cell-based
Details: recombinant HEK293 cells stably expressing TRPV3, Calcium-4 dye, 2-APB at its EC80
In short: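 HEK293 cells stably expressing human and mouse TRPV3, plated the day before and dye-loaded 90-120 min in the dark, read on FLIPR Tetra. Peak fluorescence increase over baseline was expressed as percent of the maximal 2-APB response without compound.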

Chain of human TRPV3 receptors (Q8NET8 whole entry): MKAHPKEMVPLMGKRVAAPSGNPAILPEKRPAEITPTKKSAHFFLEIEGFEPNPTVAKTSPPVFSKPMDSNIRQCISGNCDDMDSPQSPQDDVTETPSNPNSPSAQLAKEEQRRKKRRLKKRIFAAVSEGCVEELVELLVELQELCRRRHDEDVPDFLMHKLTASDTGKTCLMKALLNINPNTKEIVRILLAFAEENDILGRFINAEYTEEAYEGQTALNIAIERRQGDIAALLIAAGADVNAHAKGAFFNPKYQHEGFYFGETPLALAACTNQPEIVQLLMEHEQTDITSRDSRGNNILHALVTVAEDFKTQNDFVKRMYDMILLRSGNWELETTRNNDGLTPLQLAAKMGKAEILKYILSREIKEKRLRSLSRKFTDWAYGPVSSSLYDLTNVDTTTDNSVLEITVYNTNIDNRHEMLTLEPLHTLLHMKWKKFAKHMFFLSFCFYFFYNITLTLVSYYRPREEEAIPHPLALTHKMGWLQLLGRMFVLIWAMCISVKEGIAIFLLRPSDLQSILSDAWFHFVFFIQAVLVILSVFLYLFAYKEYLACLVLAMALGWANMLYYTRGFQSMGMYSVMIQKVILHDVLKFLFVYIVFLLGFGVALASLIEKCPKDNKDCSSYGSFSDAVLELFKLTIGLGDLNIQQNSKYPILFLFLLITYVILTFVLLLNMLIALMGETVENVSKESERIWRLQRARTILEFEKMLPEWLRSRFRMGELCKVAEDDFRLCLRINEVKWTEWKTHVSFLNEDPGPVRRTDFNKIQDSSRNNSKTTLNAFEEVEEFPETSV

Row | Structure (SMILES) | IC50
1 | CCC[C@H](CO)NCc1ccnc(-c2ccc(C(F)(F)F)cc2)n1 [Example 141, (2R)-2-[({2-[4-(trifluoromethyl)phenyl]pyrimidin-4-yl}methyl)amino]pentan-1-ol] | 4.9 µM
2 | OCC1(NCc2ccnc(-c3ccc(C(F)(F)F)cc3)n2)CC1 [Example 135, {1-[({2-[4-(trifluoromethyl)phenyl]pyrimidin-4-yl}methyl)amino]cyclopropyl}methanol] | > 20 µM
3 | CCC[C@H](CO)NCc1nc(-c2ccc(C(F)(F)F)nc2)ccc1F [Example 87, (2R)-2-({[5-fluoro-6′-(trifluoromethyl)-2,3′-bipyridin-6-yl]methyl}amino)pentan-1-ol] | 3.1 µM
4 | C[C@H](O)CNCc1ccnc(-c2ccc(C(F)(F)F)cc2)n1 [Example 180, (2S)-1-[({2-[4-(trifluoromethyl)phenyl]pyrimidin-4-yl}methyl)amino]propan-2-ol] | > 20 µM
5 | CC(C)[C@H](CO)NCc1nc(-c2ccc(Cl)c(Cl)c2)ccc1F [Example 20, (2R)-2-({[6-(3,4-dichlorophenyl)-3-fluoropyridin-2-yl]methyl}amino)-3-methylbutan-1-ol] | 1.39 µM
6 | CC(C)[C@H](CO)NCc1nc(-c2ccc(C(F)(F)F)cc2)ncc1F [Example 131, (2R)-2-[({5-fluoro-2-[4-(trifluoromethyl)phenyl]pyrimidin-4-yl}methyl)amino]-3-methylbutan-1-ol] | 0.46 µM
7 | CC(C)(C)[C@H](CO)NCc1nc(-c2ccc(C(F)(F)F)cc2)ccc1F [Example 85, (2R)-2-((3-fluoro-6-(4-(trifluoromethyl)phenyl)pyridin-2-yl)methylamino)-3,3-dimethylbutan-1-ol] | 0.52 µM
8 | CC(C)[C@H](CO)NCc1nc(-c2cc(C(F)(F)F)cc(C(F)(F)F)c2)ccc1F [Example 22, (2R)-2-[({6-[3,5-bis(trifluoromethyl)phenyl]-3-fluoropyridin-2-yl}methyl)amino]-3-methylbutan-1-ol] | 1.28 µM
9 | CC(C)Oc1ccc(-c2ccc(F)c(CN[C@@H](CO)C(C)C)n2)cc1F [Example 25, (2R)-2-[({3-fluoro-6-[3-fluoro-4-(propan-2-yloxy)phenyl]pyridin-2-yl}methyl)amino]-3-methylbutan-1-ol] | 0.65 µM
10 | CC(C)[C@H](CO)NCc1nc(N2CCc3ccc(C(F)(F)F)cc3C2)ccc1F [Example 103, (2R)-2-[({3-fluoro-6-[7-(trifluoromethyl)-3,4-dihydroisoquinolin-2(1H)-yl]-pyridin-2-yl}methyl)amino]-3-methylbutan-1-ol] | 0.26 µM
11 | OCC1(NCc2nc(-c3ccc(C(F)(F)F)cc3)ccc2F)CCC1 [Example 79, {1-[({3-fluoro-6-[4-(trifluoromethyl)phenyl]pyridin-2-yl}methyl)amino]cyclobutyl}methanol] | 0.7 µM
12 | OCC[C@H](NCc1ccnc(-c2ccc(C(F)(F)F)cc2)n1)c1ccccc1 [Example 163, (3S)-3-phenyl-3-[({2-[4-(trifluoromethyl)phenyl]pyrimidin-4-yl}methyl)amino]propan-1-ol] | > 20 µM
13 | CC(C)[C@H](CO)NCc1nc(-c2cccc(S(=O)(=O)N(C)C)c2)ccc1F [Example 39, 3-[5-fluoro-6-({[(2R)-1-hydroxy-3-methylbutan-2-yl]amino}methyl)pyridin-2-yl]-N,N-dimethylbenzenesulfonamide] | 1.7 µM
14 | OC[C@@H]1[C@@H]2CC[C@@H](C2)[C@@H]1NCc1cccc(-c2ccc(C(F)(F)F)cc2)n1 [Example 9, {(1R,2R,3S,4S)-3-[({6-[4-(trifluoromethyl)phenyl]pyridin-2-yl}methyl)amino]bicyclo[2.2.1]heptan-2-yl}methanol] | 3.65 µM
15 | CC(C)[C@H](CO)NCc1nc(-c2ccc(OC(F)(F)F)cc2)ccc1F [Example 19, (2R)-2-[({3-fluoro-6-[4-(trifluoromethoxy)phenyl]pyridin-2-yl}methyl)amino]-3-methylbutan-1-ol] | 0.23 µM
16 | CC(O)C(C)NCc1nc(-c2ccc(C(F)(F)F)cc2)ccc1F (stereo not drawn) [Example 86, 3-[({3-fluoro-6-[4-(trifluoromethyl)phenyl]pyridin-2-yl}methyl)amino]butan-2-ol] | 0.3 µM
17 | CC(C)[C@H](CO)NCc1nc(-c2ccc(C(F)(F)F)cn2)ccc1F [Example 73, (2R)-2-({[5-fluoro-5′-(trifluoromethyl)-2,2′-bipyridin-6-yl]methyl}amino)-3-methylbutan-1-ol] | 0.14 µM
18 | CC(C)[C@H](CO)NCc1nc(-c2cccc(Cl)c2)ccc1F [Example 15, (2R)-2-({[6-(3-chlorophenyl)-3-fluoropyridin-2-yl]methyl}amino)-3-methylbutan-1-ol] | 1.84 µM
19 | CC(C)(O)CNCc1ccnc(-c2ccc(C(F)(F)F)cc2)n1 [Example 175, 2-methyl-1-[({2-[4-(trifluoromethyl)phenyl]pyrimidin-4-yl}methyl)amino]propan-2-ol] | > 20 µM
20 | C[C@H](CO)NCc1ccnc(-c2ccc(C(F)(F)F)cc2)n1 [Example 137, (2R)-2-[({2-[4-(trifluoromethyl)phenyl]pyrimidin-4-yl}methyl)amino]propan-1-ol] | 7.83 µM
21 | CC(=O)c1cccc(-c2ccc(F)c(CN[C@@H](CO)C(C)C)n2)c1F [Example 37, 1-{2-fluoro-3-[5-fluoro-6-({[(2R)-1-hydroxy-3-methylbutan-2-yl]amino}methyl)pyridin-2-yl]phenyl}ethanone] | 1.19 µM
22 | O[C@@H]1CCC[C@@H]1NCc1ccnc(-c2ccc(C(F)(F)F)cc2)n1 [Example 173, (1R,2S)-2-[({2-[4-(trifluoromethyl)phenyl]pyrimidin-4-yl}methyl)amino]cyclopentanol] | > 20 µM
23 | CC(C)[C@H](CO)NCc1nc(-c2ccnc(N3CCOCC3)c2)ccc1F [Example 55, (2R)-2-({[5-fluoro-2′-(morpholin-4-yl)-2,4′-bipyridin-6-yl]methyl}amino)-3-methylbutan-1-ol] | 2.16 µM
24 | CC(C)[C@H](CO)NCc1nc(-c2ccc(OCC(F)(F)F)cc2)ccc1F [Example 53, (2R)-2-[({3-fluoro-6-[4-(2,2,2-trifluoroethoxy)phenyl]pyridin-2-yl}methyl)amino]-3-methylbutan-1-ol] | 0.46 µM
25 | CC(C)[C@@H](NCc1nc(-c2ccc(C(F)(F)F)nc2)ccc1F)C(N)=O [Example 117, (R)-2-((5-fluoro-6′-(trifluoromethyl)-2,3′-bipyridin-6-yl)methylamino)-3-methylbutanamide] | > 20 µM
26 | CC(C)[C@H](CO)NCc1nc(N2CCc3c(F)cccc3C2)ccc1F [Example 97, (2R)-2-({[3-fluoro-6-(5-fluoro-3,4-dihydroisoquinolin-2(1H)-yl)pyridin-2-yl]methyl}amino)-3-methylbutan-1-ol] | 0.11 µM

The next lines start with the values.

Row | IC50 | Structure (SMILES)
27 | 8.15 µM | CC(O)C(C)NCc1ccnc(-c2ccc(C(F)(F)F)nc2)n1 (stereo not drawn) [Example 190, 3-[({2-[6-(trifluoromethyl)pyridin-3-yl]pyrimidin-4-yl}methyl)amino]butan-2-ol]
28 | 0.7 µM | Cc1cc(-c2ccc(F)c(CN[C@@H](CO)C(C)C)n2)cnc1N1CCOCC1 [Example 253, (2R)-2-({[5-fluoro-5′-methyl-6′-(morpholin-4-yl)-2,3′-bipyridin-6-yl]methyl}amino)-3-methylbutan-1-ol]
29 | 0.12 µM | CC(C)[C@H](CO)NCc1nc(-c2cc3ccccc3n2C(=O)OC(C)(C)C)ccc1F [Example 273, tert-butyl 2-[5-fluoro-6-({[(2R)-1-hydroxy-3-methylbutan-2-yl]amino}methyl)pyridin-2-yl]-1H-indole-1-carboxylate]
30 | 0.66 µM | CC(C)[C@H](CO)NCc1nc(C2CCCN(C(=O)OC(C)(C)C)C2)ccc1F (stereo partly drawn) [Example 219, tert-butyl 3-[5-fluoro-6-({[(2R)-1-hydroxy-3-methylbutan-2-yl]amino}methyl)pyridin-2-yl]piperidine-1-carboxylate]
31 | 0.22 µM | OCC1(NCc2cccc(-c3cc(C(F)(F)F)cc(C(F)(F)F)c3)n2)CCCC1 [Example 272, {1-[({6-[3,5-bis(trifluoromethyl)phenyl]pyridin-2-yl}methyl)amino]cyclopentyl}methano 1]
32 | 0.12 µM | CC(C)[C@H](CO)NCc1nc(-c2ccc(F)c(Cl)c2)ccc1F [Example 294, (2R)-2-({[6-(3-chloro-4-fluorophenyl)-3-fluoropyridin-2-yl]methyl}amino)-3-methylbutan-1-ol]
33 | 0.18 µM | CC(C)[C@H](CO)NCc1cccc(-c2ccc(F)c(C(F)(F)F)c2)n1 [Example 267, (2R)-2-[({6-[4-fluoro-3-(trifluoromethyl)phenyl]pyridin-2-yl}methyl)amino]-3-methylbutan-1-ol]
34 | > 20 µM | OCC1(NCc2ccnc(-c3ccc(C(F)(F)F)nc3)n2)CCCCC1 [Example 185, {1-[({2-[6-(trifluoromethyl)pyridin-3-yl]pyrimidin-4-yl}methyl)amino]cyclohexyl}methanol]
35 | 2.94 µM | CC(C)[C@H](CO)NCc1ccnc(-c2ccc(C(F)(F)F)nc2)n1 [Example 184, (2R)-3-methyl-2-[({2-[6-(trifluoromethyl)pyridin-3-yl]pyrimidin-4-yl}methyl)amino]butan-1-ol]
36 | > 20 µM | COCC(CO)NCc1ccnc(-c2ccc(C(F)(F)F)cn2)n1 (stereo not drawn) [Example 195, 3-methoxy-2-[({2-[5-(trifluoromethyl)pyridin-2-yl]pyrimidin-4-yl}methyl)amino]propan-1-ol]
37 | > 20 µM | CC(C)[C@H](CO)NCc1nc(-c2ccc(N3CCN(C)CC3)nc2)ccc1F [Example 254, (2R)-2-({[5-fluoro-6′-(4-methylpiperazin-1-yl)-2,3′-bipyridin-6-yl]methyl}amino)-3-methylbutan-1-ol]
38 | 0.35 µM | CC(C)[C@H](CO)NCc1nc(-c2cc3ccccc3n2C)ccc1F [Example 249, (2R)-2-({[3-fluoro-6-(1-methyl-1H-indol-2-yl)pyridin-2-yl]methyl}amino)-3-methylbutan-1-ol]
39 | > 20 µM | C[C@@H](O)CNCc1ccnc(-c2ccc(C(F)(F)F)cc2)n1 [Example 183, (2R)-1-[({2-[4-(trifluoromethyl)phenyl]pyrimidin-4-yl}methyl)amino]propan-2-ol]
